According to paper PMC9151520 (Archives of Toxicology, 2022):
pEC50: −log10 of the molar value. Values joined by “and” are separate entries in the source; they are usually repeats but may differ in a detail not shown here. Equal entries are not always repeated. Where two headings read alike, the source gives them in different places.

How the values were obtained:
[1] = tested on: p53 signaling (p53RE-bla HCT-116 cells); assay: cells; format: cell-based
[2] = tested on: p53 signaling (p53RE-bla HCT-116 cells)
[3] = tested on: p53 signaling (p53RE-bla HCT-116 cells); conditions: for pEC50: read-out: p53 activation EC50, HLM
[4] = Homo sapiens, HCT-116, read-out: p53 activation EC50, cherry pick confirmation
[5] = Homo sapiens, HCT-116, read-out: p53 activation EC50, primary screening
[6] = Homo sapiens, HCT-116, read-out: p53 activation efficacy, cherry pick confirmation
[7] = Homo sapiens, HCT-116, read-out: p53 activation efficacy, primary screening
[8] = read-out: p53 activation EC50, No MS
[9] = read-out: p53 activation EC50, RLM
[10] = read-out: p53 activation EC50, cherry pick confirmation
[11] = read-out: p53 activation EC50, primary screening
[12] = read-out: Viability EC50, cherry pick confirmation
[13] = read-out: Viability EC50, primary screening

Row | Molecule | p53 activation EC50, cherry pick confirmation [2] | p53 activation EC50, primary screening [2] | p53 activation efficacy, cherry pick confirmation [2] | p53 activation efficacy, primary screening [2] | p53 activation EC50, cherry pick confirmation [3] | p53 activation EC50, primary screening [3] | p53 activation efficacy, cherry pick confirmation [3] | p53 activation efficacy, primary screening [3] | Viability EC50, cherry pick confirmation (p53RE-bla HCT-116 cells) | Viability EC50, primary screening (p53RE-bla HCT-116 cells) | Viability efficacy, cherry pick confirmation (p53RE-bla HCT-116 cells) | Viability efficacy, primary screening (p53RE-bla HCT-116 cells) | p53 activation efficacy, cherry pick confirmation [1] | p53 activation efficacy, primary screening [1] | pEC50 [1, 10] | pEC50 [1, 11] | pEC50 (p53RE-bla HCT-116 cells; [12]) | further results
1 | Nc1cc(Cl)ccc1O [2-Amino-4-chlorophenol] | – | – | – | – | – | – | – | – | – | – | – | – | – | – | – | – | – | EC50, p53 activation, cherry pick confirmation [1]: inactive; Efficacy, p53 activation, cherry pick confirmation [1]: inactive; pEC50 ([1]; Homo sapiens, HCT-116, read-out: EC50, p53 activation, primary screening): 4.42; Emax ([1]; Homo sapiens, HCT-116, read-out: Efficacy, p53 activation, primary screening): 53.8%; EC50, p53 activation, cherry pick confirmation [2]: inactive; EC50, p53 activation, primary screening [2]: inactive; Efficacy, p53 activation, cherry pick confirmation [2]: inactive; Efficacy, p53 activation, primary screening [2]: inactive; EC50, p53 activation, cherry pick confirmation [3]: inactive; EC50, p53 activation, primary screening [3]: inactive; Efficacy, p53 activation, cherry pick confirmation [3]: inactive; Efficacy, p53 activation, primary screening [3]: inactive; EC50, viability, cherry pick confirmation (p53RE-bla HCT-116 cells): inactive; EC50, viability, primary screening (p53RE-bla HCT-116 cells): inactive; Efficacy, viability, cherry pick confirmation (p53RE-bla HCT-116 cells): inactive; Efficacy, viability, primary screening (p53RE-bla HCT-116 cells): inactive
2 | O=c1cc(-c2ccc(O)cc2)oc2cc(O)cc(O)c12 [Apigenin] | inactive | inactive | inactive | inactive | inactive | inactive | inactive | inactive | inactive | inactive | inactive | inactive | – | – | – | – | – | pEC50 [1, 4]: 4.33; pEC50 [1, 5]: 4.74; Emax [1, 6]: 32.2%; Emax [1, 7]: 51.2%
3 | Clc1ccc2cc3ccccc3cc2c1 [2-Chloroanthracene] | – | – | – | – | – | – | – | – | – | – | – | – | – | – | – | – | – | p53 activation Efficacy, No MS [1]: 70.691% and 61.8737%; pEC50 [1, 8]: 4.45; p53 activation EC50, RLM [2]: inactive; pEC50 [2, 9]: 4.30; p53 activation EC50, HLM [3]: inactive; pEC50 [3]: 4.63; Viability EC50, HLM (p53RE-bla HCT-116 cells): inactive; Viability EC50, No MS (p53RE-bla HCT-116 cells): inactive; Viability EC50, RLM (p53RE-bla HCT-116 cells): inactive; Viability Efficacy, HLM (p53RE-bla HCT-116 cells): inactive; Viability Efficacy, No MS (p53RE-bla HCT-116 cells): inactive; Viability Efficacy, RLM (p53RE-bla HCT-116 cells): inactive
4 | CC(C)c1cccc(C(C)C)c1N1C(=O)c2ccc(O)cc2C1=O | inactive | inactive | inactive | inactive | inactive | inactive | inactive | inactive | inactive | inactive | inactive | inactive | 44.7367 | 87.6647 | 5.51 | 5.41 | – | –
5 | C/C=C(/C(=C/C)c1ccc(O)cc1)c1ccc(O)cc1 [Dienestrol] | inactive | inactive | inactive | inactive | inactive | inactive | inactive | inactive | inactive | inactive | inactive | inactive | – | – | – | – | – | pEC50 [1, 4]: 5.11; pEC50 [1, 5]: 5.11; Emax [1, 6]: 36.1%; Emax [1, 7]: 32.6%
6 | Oc1c(Cl)cc(Cl)cc1Sc1cc(Cl)cc(Cl)c1O [Sodium bithionolate] | – | – | – | – | – | – | – | – | – | – | – | – | – | – | – | – | – | EC50, p53 activation, cherry pick confirmation [1]: inactive; Efficacy, p53 activation, cherry pick confirmation [1]: inactive; Efficacy, p53 activation, primary screening [1]: 34.4493; pEC50 ([1]; read-out: EC50, p53 activation, primary screening): 4.76; EC50, p53 activation, cherry pick confirmation [2]: inactive; EC50, p53 activation, primary screening [2]: inactive; Efficacy, p53 activation, cherry pick confirmation [2]: inactive; Efficacy, p53 activation, primary screening [2]: inactive; EC50, p53 activation, cherry pick confirmation [3]: inactive; EC50, p53 activation, primary screening [3]: inactive; Efficacy, p53 activation, cherry pick confirmation [3]: inactive; Efficacy, p53 activation, primary screening [3]: inactive; EC50, viability, cherry pick confirmation (p53RE-bla HCT-116 cells): inactive; EC50, viability, primary screening (p53RE-bla HCT-116 cells): inactive; pEC50 (p53RE-bla HCT-116 cells; read-out: EC50, viability, cherry pick confirmation): 4.33 and 4.41; pEC50 (p53RE-bla HCT-116 cells; read-out: EC50, viability, primary screening): 4.36 and 4.34
7 | CC(=O)[O][Sn]([c]1ccccc1)([c]1ccccc1)[c]1ccccc1 [Triphenyltin acetate] | inactive | inactive | inactive | inactive | inactive | inactive | inactive | inactive | – | – | – | – | 67.021 | 86.4573 | 4.84 | 4.66 | 5.30 and 5.27 and 5.17 | pEC50 (p53RE-bla HCT-116 cells; [13]): 5.27 and 5.11 and 5.19
8 | Tricyclodecanedimethanol diacrylate | inactive | inactive | inactive | inactive | inactive | inactive | inactive | inactive | inactive | inactive | – | – | 41.6463 | 37.7867 | 4.51 | 4.35 | 4.31 | pEC50 (p53RE-bla HCT-116 cells; [13]): 4.31
9 | Nc1ccc2cc3ccc(N)cc3nc2c1.Nc1ccc2cc3ccc(N)cc3nc2c1.O=S(=O)(O)O [Proflavin hemisulfate] | inactive | inactive | inactive | inactive | inactive | inactive | inactive | inactive | inactive | inactive | – | inactive | 364.531 | 180.344 | 5.26 | 5.31 | 4.75 | –
10 | COc1ccc(C(=O)/C(Br)=C\C(=O)[O-])cc1.[Na+] [Cytembena] | inactive | inactive | inactive | inactive | inactive | inactive | inactive | inactive | inactive | inactive | – | inactive | inactive | 55.202 | – | 4.68 | 4.36 | p53 activation EC50, cherry pick confirmation [1]: inactive
11 | CCCSc1ccc2nc(NC(=O)OC)[nH]c2c1 [Albendazole] | inactive | inactive | inactive | inactive | inactive | inactive | inactive | inactive | inactive | inactive | inactive | inactive | – | – | – | – | – | pEC50 [1, 4]: 6.95; pEC50 [1, 5]: 6.29; Emax [1, 6]: 31.1%; Emax [1, 7]: 40.1%
12 | O=S(=O)(O)c1ccccc1C=Cc1ccc(-c2ccc(C=Cc3ccccc3S(=O)(=O)O)cc2)cc1.[Na].[Na] [Disodium 4,4'-bis(2-sulfostyryl)biphenyl] | – | – | – | – | – | – | – | – | – | – | – | – | – | – | – | – | – | activity outcome in p53-bla assay [1]: also active in the absence of microsomes; p53 activation Efficacy, No MS [1]: 37.8243% and 32.5267%; pEC50 [1, 8]: 4.60 and 4.47; pEC50 [2]: 4.53; pEC50 [2, 9]: 4.53 and 4.60; activity outcome in p53-bla assay [3]: active; pEC50 [3]: 4.73 and 4.55; Viability EC50, HLM (p53RE-bla HCT-116 cells): inactive; Viability EC50, No MS (p53RE-bla HCT-116 cells): inactive; Viability EC50, RLM (p53RE-bla HCT-116 cells): inactive; Viability Efficacy, HLM (p53RE-bla HCT-116 cells): inactive; Viability Efficacy, No MS (p53RE-bla HCT-116 cells): inactive; Viability Efficacy, RLM (p53RE-bla HCT-116 cells): inactive
